The inhibition in vivo is the relative decrease from the control value, in per cent. The IC50 is the midpoint of a concentration-inhibition curve.

These results are taken from patent US8815869B2, “Lactam acetamides as calcium channel blockers” (AbbVie Inc., priority 2010, dated 2014).

A value given as a limit tells only on which side of the number the result lay.

The subject of one assay is Sprague Dawley rats. Briefly: Capsaicin induced secondary mechanical hyperalgesia model. The format is in vivo. Conditions: po, 1 h; 30 mg/kg p.o., 60 minutes before testing; relative to vehicle; secondary mechanical hyperalgesia 180 minutes after capsaicin; rat. How it is done:
(iii) In Vivo Data—Capsaicin Induced Secondary Mechanical Hyperalgesia Model
Sprague Dawley rats were briefly restrained, and capsaicin was administered at 10 μg in 10 μL of vehicle by intraplantar injection into the center of the right hind paw. Secondary mechanical hyperalgesia (SMH) was measured at the heel away from the site of injection 180 minutes following capsaicin exposure. Compounds and gabapentin (positive control), were administered p.o. 60 minutes before testing (2 hours after capsaicin) or i.p. 30 minutes before testing (2.5 hours after capsaicin). SMH was measured using calibrated von Frey filaments (Stoelting, Woodale, Ill.). Following the 1 hour habituation in the testing room, rats were moved to individual plexiglass chambers that sit on top of a wire mesh to allow for access for stimulation of the plantar surface of the hind paws. Rats were allowed to acclimate to the new chambers for 15 minutes before the onset of testing. The paw withdrawal threshold was determined by increasing and decreasing stimulus intensity (force: g) and calculated using Dixon's up-down method (Chaplan, S R; et al. J. Neuroscience Methods 1994; 53: 55-63). The filaments (maximum force of 15.0 g) were held in place for 8 seconds or until there was a withdrawal response from the mechanical stimulation.

For another assay, the target named is T1, Human Cav3.2 (Homo sapiens, UniProt O95180).
T1 construct: expressed in transfected cells
Briefly: Electrophysiologic (whole-cell patch-clamp) assessment of calcium channel activity, HEK293 cells stably expressing hCav3.2. Format: cell-based. The conditions noted are these: −77 mV, GeoMean. How it is done:
(ii) In Vitro Methods—Electrophysiologic Assessment of Calcium Channel Activity
Patch-clamp recordings were performed using HEK293 cells stably expressing hCav3.2. Cells were plated in T175 flasks and grown at 37° C. and under 5% CO2 to approximately 50% confluency. On the day of the experiment, cells were harvested with Detachin™ cell detachment solution (Genlantis, San Diego, Calif.) and maintained in serum-free culture medium supplemented with 25 mM HEPES up to several hours prior to experiment. Whole-cell patch-clamp recordings were obtained using extracellular saline consisting of (mM): 87.5 CsCl, 40 TEA-Cl, 5 CaCl2, 1 MgCl2, 10 HEPES, 10 glucose. The pH was adjusted to 7.2 with CsOH and the osmolarity was adjusted to approximately 310 mOsm with sucrose. Intracellular solution consisted of (mM): 112 CsCl, 27 CsF, 2 NaCl, 8.2 EGTA, 10 HEPES. Prior to an experiment 4 mM Mg2ATP was added and the pH was adjusted to 7.2 with CsOH with an osmolarity of approximately 290 mOsm. A two-pulse voltage protocol was utilized to assess compound inhibition. First, cells were held with an 8 second pre-pulse at −100 mV prior to a 160 millisecond test pulse to −30 mV. This was followed by an 8 second pre-pulse at approximately −75 mV prior to a […] test pulse to −30 mV. Increasing concentrations of antagonist were applied to individual cells in a multi-addition format with 5 minutes in each test concentration. For each cell, responses were normalized to dimethyl sulfoxide vehicle control to generate concentration-response curves.
In general terms: The patch-clamp technique gives a direct electrical read-out from membranes.

T1 sequence (O95180 whole entry): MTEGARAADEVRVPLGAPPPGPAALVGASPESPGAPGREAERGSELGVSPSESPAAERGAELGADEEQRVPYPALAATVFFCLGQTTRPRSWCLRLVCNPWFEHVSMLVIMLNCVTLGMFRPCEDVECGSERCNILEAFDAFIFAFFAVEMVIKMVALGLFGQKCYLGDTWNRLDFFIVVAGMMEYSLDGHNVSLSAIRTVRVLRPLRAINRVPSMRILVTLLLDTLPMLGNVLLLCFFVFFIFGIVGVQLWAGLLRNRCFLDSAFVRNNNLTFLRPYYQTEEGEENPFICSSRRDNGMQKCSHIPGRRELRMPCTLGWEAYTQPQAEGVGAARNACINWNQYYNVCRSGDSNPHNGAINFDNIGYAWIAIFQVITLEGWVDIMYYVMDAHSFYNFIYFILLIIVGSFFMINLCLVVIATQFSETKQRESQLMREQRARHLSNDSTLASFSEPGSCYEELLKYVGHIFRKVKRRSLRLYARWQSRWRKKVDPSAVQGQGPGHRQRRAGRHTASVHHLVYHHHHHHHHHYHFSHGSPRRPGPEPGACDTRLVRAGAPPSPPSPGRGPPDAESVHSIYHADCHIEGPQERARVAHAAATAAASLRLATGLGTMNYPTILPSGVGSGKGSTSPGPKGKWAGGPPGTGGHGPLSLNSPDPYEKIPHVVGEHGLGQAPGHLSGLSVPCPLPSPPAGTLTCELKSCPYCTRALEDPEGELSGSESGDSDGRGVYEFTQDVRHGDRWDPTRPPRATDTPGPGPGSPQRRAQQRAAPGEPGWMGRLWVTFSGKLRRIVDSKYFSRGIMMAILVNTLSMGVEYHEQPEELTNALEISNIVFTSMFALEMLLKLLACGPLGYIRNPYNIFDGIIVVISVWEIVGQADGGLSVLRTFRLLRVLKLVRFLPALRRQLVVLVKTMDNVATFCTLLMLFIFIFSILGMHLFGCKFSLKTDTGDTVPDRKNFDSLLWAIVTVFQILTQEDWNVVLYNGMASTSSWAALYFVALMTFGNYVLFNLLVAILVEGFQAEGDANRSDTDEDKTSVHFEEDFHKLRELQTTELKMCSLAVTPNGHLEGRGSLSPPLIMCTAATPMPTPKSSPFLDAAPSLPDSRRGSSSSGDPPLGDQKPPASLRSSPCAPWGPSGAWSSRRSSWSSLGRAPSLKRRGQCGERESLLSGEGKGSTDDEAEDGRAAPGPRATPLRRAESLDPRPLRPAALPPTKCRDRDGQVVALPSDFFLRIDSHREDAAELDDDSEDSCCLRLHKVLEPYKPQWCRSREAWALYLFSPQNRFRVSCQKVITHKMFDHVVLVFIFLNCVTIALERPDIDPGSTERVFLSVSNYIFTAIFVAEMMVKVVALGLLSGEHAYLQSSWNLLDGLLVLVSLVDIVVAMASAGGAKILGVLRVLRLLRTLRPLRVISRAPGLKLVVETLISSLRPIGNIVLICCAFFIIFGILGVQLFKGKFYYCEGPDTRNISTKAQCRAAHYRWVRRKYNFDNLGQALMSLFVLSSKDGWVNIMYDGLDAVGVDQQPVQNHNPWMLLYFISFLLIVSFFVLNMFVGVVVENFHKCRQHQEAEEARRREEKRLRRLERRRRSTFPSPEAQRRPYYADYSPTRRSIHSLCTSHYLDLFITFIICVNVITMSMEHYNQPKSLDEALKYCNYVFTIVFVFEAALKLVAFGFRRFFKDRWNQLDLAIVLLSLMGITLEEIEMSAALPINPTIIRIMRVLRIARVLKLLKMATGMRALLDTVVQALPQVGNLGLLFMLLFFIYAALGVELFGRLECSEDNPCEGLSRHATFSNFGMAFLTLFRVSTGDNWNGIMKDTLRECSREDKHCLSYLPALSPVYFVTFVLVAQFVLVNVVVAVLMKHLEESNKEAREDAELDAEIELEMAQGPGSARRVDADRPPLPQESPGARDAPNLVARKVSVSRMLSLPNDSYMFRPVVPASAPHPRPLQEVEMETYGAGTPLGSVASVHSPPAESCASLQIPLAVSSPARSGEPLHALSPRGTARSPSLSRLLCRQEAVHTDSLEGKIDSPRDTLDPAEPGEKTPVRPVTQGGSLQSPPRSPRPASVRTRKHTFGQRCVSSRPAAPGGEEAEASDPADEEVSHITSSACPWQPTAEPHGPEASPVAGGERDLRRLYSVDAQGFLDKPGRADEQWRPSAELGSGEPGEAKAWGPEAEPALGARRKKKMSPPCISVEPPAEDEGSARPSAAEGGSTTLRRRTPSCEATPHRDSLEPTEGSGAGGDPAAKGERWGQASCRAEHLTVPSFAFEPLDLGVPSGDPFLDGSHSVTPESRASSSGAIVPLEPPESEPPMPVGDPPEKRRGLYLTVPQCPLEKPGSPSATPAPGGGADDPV

Regarding `O=C(CN1CCCC(c2ccccc2)(c2ccccc2)C1=O)N1C[C@@H]2CN[C@@H](C2)C1` (relative stereo) [Example 13, 1-{2-[(1S*,5S*)-3,6-Diazabicyclo[3.2.1]oct-3-yl]-2-oxoethyl}-3,3-diphenylpiperidin-2-one], the inhibition in vivo at 30 mg/kg in the assay on Sprague Dawley rats came to 60%. For the same molecule, at Human Cav3.2, the IC50 is 3.6 µM. As to `O=C(CN1CCCC(c2ccccc2)(c2ccccc2)C1=O)NC1CCNCC1` [Example 1, 2-(2-Oxo-3,3-diphenylpiperidin-1-yl)-N-(piperidin-4-yl)acetamide], the IC50 on Human Cav3.2 was over 10 µM. Consider `CC1(C)C(=O)NCCN1C(=O)CN1CCCC(c2ccccc2)(c2ccccc2)C1=O` [Example 2, 3,3-Dimethyl-4-[(2-oxo-3,3-diphenylpiperidin-1-yl)acetyl]piperazin-2-one], for which, on Human Cav3.2, the IC50 came to 2.77 µM. With `O=C(CN1CCCC(c2ccccc2)(c2ccccc2)C1=O)N1C[C@@H]2CCCN[C@@H]2C1` [Example 3, 1-{2-[(4aS,7aS)-Octahydro-6H-pyrrolo[3,4-b]pyridin-6-yl]-2-oxoethyl}-3,3-diphenylpiperidin-2-one], the inhibition in vivo at 30 mg/kg in the assay with Sprague Dawley rats was 31%. At Human Cav3.2, the IC50 was determined as 4.35 µM.

With `O=C(CN1CCCC(c2ccccc2)(c2ccccc2)C1=O)N1C[C@H]2CCCN[C@H]2C1` [Example 4, 1-{2-[(4aR,7aR)-Octahydro-6H-pyrrolo[3,4-b]pyridin-6-yl]-2-oxoethyl}-3,3-diphenylpiperidin-2-one], in the assay on Sprague Dawley rats, the inhibition in vivo at 30 mg/kg came to 19%. Besides, at Human Cav3.2, the IC50 is over 10 µM.

Consider `O=C(CN1CCCC(c2ccccc2)(c2ccccc2)C1=O)N1CCC[C@H]2CNC[C@H]21` [Example 5, 1-{2-[(4aS,7aS)-Octahydro-1H-pyrrolo[3,4-b]pyridin-1-yl]-2-oxoethyl}-3,3-diphenylpiperidin-2-one], for which the IC50 at Human Cav3.2 was determined as 1.6 µM.

For `O=C(CN1CCCC(c2ccccc2)(c2ccccc2)C1=O)N1CC2CNCC2C1` (stereo not shown) [Example 6, 1-(2-Hexahydropyrrolo[3,4-c]pyrrol-2(1H)-yl-2-oxoethyl)-3,3-diphenylpiperidin-2-one], the inhibition in vivo at 30 mg/kg in the assay on Sprague Dawley rats amounted to 74%. Besides, the IC50 on Human Cav3.2 worked out at 5.31 µM. For `O=C(CN1CCCC(c2ccccc2)(c2ccccc2)C1=O)N1CC2(CCNCC2)C1` [Example 7, 1-[2-(2,7-Diazaspiro[3.5]non-2-yl)-2-oxoethyl]-3,3-diphenylpiperidin-2-one], in the assay with Sprague Dawley rats, the inhibition in vivo at 30 mg/kg worked out at 19%. The IC50 at Human Cav3.2 was 5.8 µM. As to `O=C(CN1CCCC(c2ccccc2)(c2ccccc2)C1=O)NC[C@H]1CCCN1` [Example 8, 2-(2-Oxo-3,3-diphenylpiperidin-1-yl)-N-[(2R)-pyrrolidin-2-ylmethyl]acetamide], the IC50 at Human Cav3.2 is over 10 µM. On to `O=C(CN1CCCC(c2ccccc2)(c2ccccc2)C1=O)NC[C@@H]1CCCN1` [Example 9, 2-(2-Oxo-3,3-diphenylpiperidin-1-yl)-N-[(2S)-pyrrolidin-2-ylmethyl]acetamide], for which the IC50 at Human Cav3.2 was found to be 5.86 µM. Turning to `O=C1CN(C(=O)CN2CCCC(c3ccccc3)(c3ccccc3)C2=O)CCN1` [Example 10, 4-[(2-Oxo-3,3-diphenylpiperidin-1-yl)acetyl]piperazin-2-one], the IC50 on Human Cav3.2 was over 10 µM. Turning to `O=C(CN1CCCC(c2ccccc2)(c2ccccc2)C1=O)NC1CNC1` [Example 11, N-Azetidin-3-yl-2-(2-oxo-3,3-diphenylpiperidin-1-yl)acetamide], the IC50 at Human Cav3.2 stood at 0.56 µM. `O=C(CN1CCCC(c2ccccc2)(c2ccccc2)C1=O)N1CCNCC1` [Example 12, 1-(2-Oxo-2-piperazin-1-ylethyl)-3,3-diphenylpiperidin-2-one]: the inhibition in vivo at 30 mg/kg in the assay with Sprague Dawley rats was 41%. Also, on Human Cav3.2, the IC50 is over 10 µM. Taken in the same sequence, the figures for `O=C(CN1CCC(c2ccc(F)cc2)(c2ccc(F)cc2)C1=O)N1CCNCC1` [Example 14, 3,3-Bis(4-fluorophenyl)-1-(2-oxo-2-piperazin-1-ylethyl)pyrrolidin-2-one] were 52% and 7.75 µM. As for `O=C(CN1CCC(c2ccc(F)cc2)(c2ccc(F)cc2)C1=O)N1CCN2CCC[C@@H]2C1` [Example 15, 3,3-Bis(4-fluorophenyl)-1-{2-[(8aR)-hexahydropyrrolo[1,2-a]pyrazin-2(1H)-yl]-2-oxoethyl}pyrrolidin-2-one], the IC50 on Human Cav3.2 turned out to be 2.16 µM. For the molecule `O=C(CN1CCC(c2ccc(F)cc2)(c2ccc(F)cc2)C1=O)NC1CNC1` [Example 16, N-Azetidin-3-yl-2-[3,3-bis(4-fluorophenyl)-2-oxopyrrolidin-1-yl]acetamide], the IC50 on Human Cav3.2 was 0.82 µM.

Turning to `O=C(CN1CCC(c2ccc(F)cc2)(c2ccc(F)cc2)C1=O)N(C1CCNCC1)C1CC1` [Example 17, 2-[3,3-Bis(4-fluorophenyl)-2-oxopyrrolidin-1-yl]-N-cyclopropyl-N-piperidin-4-ylacetamide], on Human Cav3.2, the IC50 is 4.07 µM. For the molecule `O=C(CN1CCC(c2ccc(F)cc2)(c2ccc(F)cc2)C1=O)N(C1CCC1)C1CCNCC1` [Example 18, 2-[3,3-Bis(4-fluorophenyl)-2-oxopyrrolidin-1-yl]-N-cyclobutyl-N-piperidin-4-ylacetamide], in the assay on Sprague Dawley rats, the inhibition in vivo at 30 mg/kg is 5%. The IC50 on Human Cav3.2 was determined as 9.1 µM. Turning to `O=C(CN1CCC(c2ccc(F)cc2)(c2ccc(F)cc2)C1=O)N(C1CCCC1)C1CCNCC1` [Example 19, 2-[3,3-Bis(4-fluorophenyl)-2-oxopyrrolidin-1-yl]-N-cyclopentyl-N-piperidin-4-ylacetamide], the IC50 on Human Cav3.2 amounted to 1.1 µM.

As for `O=C(CN1CCC(c2ccccc2)(c2ccccc2)C1=O)N1CCN(C2CCCCC2)CC1` [Example 21, 1-[2-(4-Cyclohexylpiperazin-1-yl)-2-oxoethyl]-3,3-diphenylpyrrolidin-2-one], the IC50 on Human Cav3.2 came out at 1 µM. In the case of `CN1CCN(C(=O)CN2CCCC(c3ccccc3)(c3ccccc3)C2=O)CC1` [Example 22, 1-[2-(4-Methylpiperazin-1-yl)-2-oxoethyl]-3,3-diphenylpiperidin-2-one], the IC50 on Human Cav3.2 was over 10 µM.

As for `O=C(CN1CCCC(c2ccc(F)cc2)(c2ccc(F)cc2)C1=O)N1CCNCC1` [Example 23, 3,3-Bis(4-fluorophenyl)-1-(2-oxo-2-piperazin-1-ylethyl)piperidin-2-one], the inhibition in vivo at 30 mg/kg with Sprague Dawley rats is -2%.

Take `O=C(CN1CCC(c2ccccc2)(c2ccccc2)C1=O)N1CCNCC1` [Example 24, 1-(2-Oxo-2-piperazin-1-ylethyl)-3,3-diphenylpyrrolidin-2-one]: the inhibition in vivo at 30 mg/kg in the assay with Sprague Dawley rats worked out at 52%.
